Molecules are shown by their SMILES.

For `CNC(=O)C1CCCCN1` (configuration not stated), the pKa (basic group) amounted to 8.8.
On to `CN(C)Cc1ccc(O)c(O)c1O`, for which the pKa (basic group) was found to be 8.26.
In the case of `CC(C)[NH2+]CCN`, the pKa (basic group) amounted to 7.7.
As for `Nc1ccc(S(=O)(=O)Nc2ncccn2)cc1`, the pKa runs as follows: (acidic group) 6.42; (basic group) 2.
`CC1(C)[C@@H]2CC[C@](C(=O)O)(C2)[C@H]1O` gave a pKa (acidic group) of 5.05.
In turn, `O=C(O)COc1ccc([N+](=O)[O-])cc1` came in with a pKa (acidic group) of 2.89.
With `COc1ccc2c(c1)cc(C)n2C`, under “basic group”, the pKa amounted to 0.25.
Regarding `C[Si](C)(C)c1ccc(N)cc1`, the pKa (basic group) came out at 4.36.
For `COc1cccc(/C=N/O)c1`, for the setting “acidic group”, the pKa was found to be 10.6.
With `Cc1cc(O)cc(C)c1C#N`, where the note is “acidic group”, the pKa is 8.21.
Turning to `Cc1ccc(S(=O)(=O)NC(=O)OC(C)(C)C)cc1`, the pKa (acidic group) worked out at 5.05.
Under “acidic group”, `O=C(O)[C@]12C[NH2+]CC[C@H]1O2` gave a pKa of 2.63.
Turning to `C1C[NH2+]CCSCCN1`, the pKa (basic group) is 4.16.
On to `Nc1cccc2c([N+](=O)[O-])cccc12`, for which, for the setting “basic group”, the pKa stood at 2.8.
For the setting “basic group”, `CC1=CC(C)=N/C1=C/c1[nH]c(C)cc1C` came in with a pKa of 8.4.
`Cc1ccc(NC=S)cc1` returned a pKa (acidic group) of 11.6.
`Cc1cc(C=O)c(O)c(C=O)c1`: for the setting “acidic group”, the pKa is 6.2.
As to `Cc1nn(C)c(C)c1Cl`, for the setting “basic group”, the pKa was 1.96.
For the setting “basic group”, `[O-]c1cc2nc(c1)COCCOCCSCCOCCOC2` gave a pKa of 10.1.
Consider `CCC1(C2=CCCCC2)C(=O)[N-]C(=S)NC1=O`, for which the pKa (acidic group) came to 11.8.
Where the note is “basic group”, `CC(C)[NH+]1CCC(NN)CC1` had a pKa of 5.75.
For the molecule `C[n+]1c2ccccc2cc2cc(N)ccc21`, the pKa (acidic group) turned out to be 9.8.
The molecule `CCC1(C)OC(=O)NC1=O` (configuration not stated) gave a pKa (acidic group) of 6.
On to `C[N+](C)(C)CCOC(=O)/C=C/c1c[nH]cn1`, for which the pKa (basic group) was determined as 4.6.
The molecule `CCOC(=O)C[N+](=O)[O-]` showed a pKa (acidic group) of 5.82.
Regarding `Cc1ccc(-c2cnc(-c3ccccc3)o2)cc1`, the pKa (basic group) stood at 0.91.
Turning to `C[Si](C)(C)c1cccc(N)c1`, for the setting “basic group”, the pKa was found to be 4.64.
`C[n+]1cccc(O)c1`: the pKa (acidic group) was 4.96.
In the case of `CC(=O)N=S(C)C`, the pKa (basic group) worked out at 3.16.
Same read-out and setting: as for `CN(C)CCCNC(=O)/C=N/[O-]`, the figure is 9.78.
As to `[NH3+]CCCCCCC(=O)O`, the pKa (acidic group) came to 4.44.
`C[N+]1(CC(=O)O)CCCCC1` returned a pKa (acidic group) of 2.01.
The molecule `O=C(NCCN1CCOCC1)c1ccc(Cl)cc1` showed a pKa (basic group) of 6.31.
For the setting “acidic group”, `O=C(O[C@H]1O[C@@H](C(=O)O)[C@H](O)[C@@H](O)[C@@H]1O)c1ccccc1` displayed a pKa of 2.85.
The molecule `NC(=O)c1cc(-c2ccccc2)nnc1NCCN1CCOCC1` had a pKa (acidic group) of 6.85.
With `Cn1ncc2c(NCc3ccccc3)ncnc21`, the pKa (basic group) turned out to be 3.66.
As for `NCc1cccc(O)c1O`, the pKa (basic group) amounted to 8.3.
As to `C#CCO`, where the note is “acidic group”, the pKa stood at 13.3.
Under “acidic group”, `Cc1cccc(Cl)c1O` had a pKa of 8.7.
Still for that read-out and setting: the result for `CCP(=O)(O)CC` reads 3.22; that for `Cn1c[nH+]cc1C[C@H]([NH3+])C(=O)O`, 1.84.
As for `COc1cc(S(C)=O)ccc1-c1nc2[nH]ncc2[nH]1` (configuration not stated), the pKa came to 12 (acidic group) and 3.8 (basic group).
As to `Cc1cccc(OCC(=O)O)c1`, the pKa (acidic group) was determined as 3.18.
The molecule `CCCn1cncn1` had a pKa (basic group) of 2.36.
For `O=c1ccc2ccc(O)c(O)c2o1`, the pKa (acidic group) came to 6.9.
Turning to `[O-]c1ccnc[nH+]1`, the pKa (basic group) is 1.77.
Same read-out and setting: the result for `c1ccc(NCCN2CCCCC2)cc1` reads 9.2; that for `CC(CC(c1ccccc1)c1ccccc1)N1CCOCC1` (configuration not stated), 6.9.
As to `Cc1cc(Cc2cc([N+](=O)[O-])ccc2[O-])cc(C)c1O`, the pKa (acidic group) came to 10.9.
In turn, `COc1ccc2nc3ccccc3cc2c1` displayed a pKa (basic group) of 3.82.
In the case of `C[C@@H]([NH3+])C(=O)N1CCC[C@H]1C(=O)O`, the pKa (acidic group) was found to be 3.04.
On to `CC(C)C(C(C)C)N(C)C`, for which the pKa (basic group) amounted to 10.1.
Take `CC(=O)[n+]1cccc(C#N)c1`: the pKa (acidic group) came out at 1.62.
In turn, `Cc1nc(C(=O)[O-])cs1` returned a pKa (basic group) of 3.9.
Take `NCC[n+]1cc(Br)c2ccccc2c1`: the pKa (basic group) is 6.71.
Turning to `C[NH+](C)C[C@@H]1[C@@H](N)[C@]2(C)CC[C@@H]1C2(C)C`, the pKa (basic group) stood at 7.5.
Still for that read-out and setting: as for `c1c[nH]c(P(c2[nH]cc[nH+]2)c2[nH]cc[nH+]2)n1`, the figure is 5.26.
As for `c1ccc(CCNc2ncnc3nc[nH]c23)cc1`, the pKa was 10.1 (acidic group) and 4.2 (basic group).
`O=[N+]([O-])c1ccc(NO)cc1`: for the setting “basic group”, the pKa was determined as 0.65.
Same read-out and setting: the result for `CC[C@]1(O)C[C@@H](C)N[C@@H]2CCCC[C@H]21` reads 10.3; that for `[O-]c1cc2ccccc2nn1`, 8.61; that for `CCC(O)CN(CCO)C(C)(C)C` (configuration not stated), 9.4.
Turning to `Nc1cnc([S-])nc1N`, for the setting “basic group”, the pKa came out at 10.4.
Where the note is “basic group”, `CN1C(C)(C)CCCC1(C)C` came in with a pKa of 11.2.
The molecule `Cc1ccc2cccc(O)c2n1` returned a pKa (acidic group) of 10.1 and a pKa (basic group) of 5.63.
Under “basic group”, `N#Cc1ccc(N)cc1` displayed a pKa of 1.74.
For the setting “acidic group”, `O=C(O)/C=C/c1ccc2c(c1)OCO2` came in with a pKa of 4.6.
With `CCSC(C)(O)O`, the pKa (acidic group) stood at 12.1.
As to `c1ccc(CSc2ccccn2)cc1`, the pKa (basic group) came out at 3.23.
Take `NC(=O)[C@@H](N)Cc1ccccc1`: under “acidic group”, the pKa was found to be 7.26.
Molecule `[NH3+][C@H]1CC[C@H](C(=O)O)CC1` registered a pKa (acidic group) of 3.92.
`CC(C)(C)c1cc(N)cc(C(C)(C)C)c1` returned a pKa (basic group) of 4.97.
Turning to `CCN(O)CC`, where the note is “basic group”, the pKa is 5.62.
Molecule `CC(Cl)CN` (configuration not stated) came in with a pKa (basic group) of 8.54.
Molecule `Cc1cc(=O)n(C)cn1` returned a pKa (basic group) of 2.1.
Regarding `CC(N)(C(=O)[O-])c1ccccc1` (configuration not stated), the pKa (basic group) turned out to be 9.
Molecule `CC(C)(C)C(=O)NC(O)C(Cl)(Cl)Cl` (configuration not stated) registered a pKa (acidic group) of 14.7.
`CC(C)(C)c1ccc(C(O)CCCN2CCC(C(O)(c3ccccc3)c3ccccc3)CC2)cc1` (configuration not stated) had a pKa (basic group) of 8.6.
The same measure, in the same setting: as for `COc1ccc(/N=C/N(C)C)cc1`, the figure is 9.35.
`CC(C)(N)C#N` returned a pKa (basic group) of 5.3.
Molecule `c1ccc2c(c1)[NH+]=C(c1ccncc1)[NH2+]2` came in with a pKa (basic group) of 1.96.
The molecule `O=C(O)[C@H](O)c1cccc([N+](=O)[O-])c1` yielded a pKa (acidic group) of 3.03.
Where the note is “basic group”, `C#CC(C)(C)N(CC)C(C)(C)C` came in with a pKa of 9.6.
`O=[N+]([O-])C(CO)CO` gave a pKa (acidic group) of 9.07.
Turning to `CN(C)c1ncc(-c2ccccc2)s1`, the pKa (basic group) worked out at 4.89.
Regarding `CCCCP(=O)(O)CCCC`, the pKa (acidic group) was 3.22.
On to `Cc1nc([O-])n[nH]1`, for which, under “basic group”, the pKa stood at 9.43.
Consider `C[N+](C)(C)c1ccccc1O`, for which, under “acidic group”, the pKa stood at 7.46.
Regarding `CCCS`, where the note is “acidic group”, the pKa was found to be 10.6.
`Cc1ccc(C(=O)c2cc[nH]n2)cc1` registered a pKa (acidic group) of 12.
For `O=C(O)/C=C/c1cccc([N+](=O)[O-])c1`, for the setting “acidic group”, the pKa came to 4.08.
Regarding `CC[NH+](CC)CCCCCCNc1c2ccc(Cl)cc2nc2ccc(OC)cc12`, the pKa (basic group) is 8.12.
Turning to `Cc1cc(C(=O)O)n[nH]1`, the pKa (acidic group) was found to be 3.99.
As for `CNC(=O)Oc1ccc2c(c1)[C@@]1(C)CC[NH+](C)[C@H]1N2C`, the pKa (acidic group) was found to be 6.12.
Consider `Nc1cccc([NH3+])c1`, for which the pKa (basic group) came out at 2.46.
Regarding `COc1ncnc2nccnc12`, the pKa (basic group) was determined as 1.04.
Regarding `CC(P)C(=O)O` (configuration not stated), where the note is “acidic group”, the pKa was 4.15.
As for `O=[N+]([O-])c1ccccc1-c1nnn[nH]1`, the pKa (acidic group) worked out at 2.98.
As for `CC1=C/C(=N\c2ccc(O)cc2)C(C(C)C)=CC1=O`, the pKa (acidic group) came out at 8.85.
Molecule `CC(O)CNCCO` (configuration not stated) yielded a pKa (basic group) of 8.81.
The molecule `O=C(O)[C@@H]1O[C@H](Oc2ccc3oc4cccc(O)c4c(=O)c3c2)[C@@H](O)[C@H](O)[C@H]1O` had a pKa (acidic group) of 3.94.
As for `CN(C)c1ccc(C2CN3CCC2CC3)cc1` (configuration not stated), the pKa (basic group) turned out to be 10.3.
With `Cc1c[nH]c(C(=O)O)c1`, the pKa (acidic group) is 4.6.
In turn, `Cn1/c(=N\N)sc2ccccc21` had a pKa (basic group) of 6.1.
On to `O=C(O)c1cc([N+](=O)[O-])ccc1C(=O)c1ccccc1`, for which the pKa (acidic group) stood at 2.86.
With `OCC(Cl)Cl`, where the note is “acidic group”, the pKa came out at 13.2.
With `C/C(=C(/S)CCO)N(C=O)Cc1cnc(C)nc1N`, the pKa came to 11.4 (acidic group) and 4.19 (basic group).
Taken in the same sequence, the figures for `O=[N+]([O-])c1ccc2[nH]cnc2c1` were 10.6 and 3.77.
As to `NCCc1cnc[nH]1`, where the note is “basic group”, the pKa was 9.4.
Regarding `CC([NH3+])c1nnn[nH]1` (configuration not stated), the pKa (acidic group) was found to be 2.63.
Consider `O/N=C/c1ccccc1O`, for which the pKa was found to be 9.21 (acidic group) and 1.37 (basic group).
`CC(C(=O)O)c1ccc(-c2ccccc2)c(F)c1` (configuration not stated): the pKa (acidic group) was determined as 4.22.
For the molecule `CCCCNc1ccnc([S-])n1`, the pKa (basic group) was determined as 11.1.
For the setting “acidic group”, `Nc1cc2ccccc2cc1O` showed a pKa of 9.35.
`Nc1cccc(C(=O)[O-])c1` showed a pKa (basic group) of 4.7.
Consider `NCCc1c[nH]cn1`, for which, for the setting “basic group”, the pKa was 9.87.
Where the note is “basic group”, `Nc1ccc(-c2ccc(/[NH+]=C/c3ccc(O)cc3)cc2)cc1` yielded a pKa of 5.05.
The molecule `N[C@H]1CCCC[C@@H]1[NH3+]` yielded a pKa (basic group) of 6.71.
Where the note is “acidic group”, `CCOCCn1c(CN2CC[NH+](CCCCn3cc(C(=O)O)cn3)CC2)[nH+]c2ccccc21` gave a pKa of 3.8.
In turn, `Oc1ccccc1F` came in with a pKa (acidic group) of 8.81.
In turn, `Nc1cccc2cccc([N+](=O)[O-])c12` yielded a pKa (basic group) of 2.79.
For the molecule `CCc1cccnn1`, the pKa (basic group) amounted to 3.58.
`CCNC(N)=O` came in with a pKa (basic group) of 1.19.
The molecule `Nc1ccc([N+](=O)[O-])c(F)c1` displayed a pKa (basic group) of -0.3.
Under “basic group”, `Nc1cccc2ccnnc12` registered a pKa of 3.68.
Still for that read-out and setting: as for `Cc1[nH]c2ccc(N)cc2[nH+]1`, the figure is 3.12.
Turning to `O=[N+]([O-])c1cc(Cl)ccc1O`, where the note is “acidic group”, the pKa was determined as 3.5.
For the setting “acidic group”, `O=C(Nc1nnc(-c2ccccc2)s1)c1ccccc1` returned a pKa of 6.8.
Regarding `Clc1ccc(C2NCCS2)cc1` (configuration not stated), the pKa (basic group) was determined as 5.01.
Consider `CNC(=N)CCNS(=O)(=O)c1ccc(C)cc1`, for which the pKa (acidic group) turned out to be 11.9 and the pKa (basic group) is 10.
`CC1(C)[C@@H]2CC[C@]1(C)C(=O)C2C(=O)O` (some centres not stated) registered a pKa (acidic group) of 3.76.
With `CC1=NN(c2ccccc2)C(=O)/C1=C\c1c(C)nn(-c2ccccc2)c1O`, the pKa (acidic group) was determined as 13.8.
On the same count and under the same terms, as for `CC1CC(C(=O)O)=[N+]([O-])C1(C)C` (configuration not stated), the figure is 2.85; as for `C[Si](C)(C)CCCCCC(=O)O`, 5.06.

Source of the values: the pKa sets of Baltruschat and Czodrowski (2020).
